From patent US20250101029A1, “ORGANIC COMPOUNDS” (INTRA-CELLULAR THERAPIES, INC., priority 2022, published 2025)

What was measured:
Settings in all cases: qualitative statement
SERT = SERT (Homo sapiens, UniProt P31645); test: Receptor binding, SERT
D2 = D2 (Homo sapiens, UniProt P14416); test: Receptor binding, D2
D1 = D1 (Homo sapiens, UniProt P21728); test: Receptor binding, D1
Mu opiate receptor = Mu opiate receptor (Homo sapiens, UniProt P35372); test: Receptor binding, Mu opiate receptor
5-HT2A = 5-HT2A (Homo sapiens, UniProt P28223); test: Receptor binding, 5-HT2A
5-HT2A, sequence (P28223 whole entry): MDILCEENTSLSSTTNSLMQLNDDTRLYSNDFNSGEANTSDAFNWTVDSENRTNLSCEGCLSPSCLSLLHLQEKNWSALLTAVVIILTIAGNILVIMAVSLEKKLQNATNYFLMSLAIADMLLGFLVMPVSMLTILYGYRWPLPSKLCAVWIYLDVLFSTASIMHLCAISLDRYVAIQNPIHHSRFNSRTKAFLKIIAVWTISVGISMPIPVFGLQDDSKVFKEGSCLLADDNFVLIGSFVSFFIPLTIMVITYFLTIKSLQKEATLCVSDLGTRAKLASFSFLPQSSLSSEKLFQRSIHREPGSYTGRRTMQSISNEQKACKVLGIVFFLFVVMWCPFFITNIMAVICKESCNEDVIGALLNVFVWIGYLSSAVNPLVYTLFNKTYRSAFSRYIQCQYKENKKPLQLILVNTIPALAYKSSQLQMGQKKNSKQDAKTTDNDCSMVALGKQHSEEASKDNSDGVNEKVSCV

SERT, sequence (P31645 whole entry): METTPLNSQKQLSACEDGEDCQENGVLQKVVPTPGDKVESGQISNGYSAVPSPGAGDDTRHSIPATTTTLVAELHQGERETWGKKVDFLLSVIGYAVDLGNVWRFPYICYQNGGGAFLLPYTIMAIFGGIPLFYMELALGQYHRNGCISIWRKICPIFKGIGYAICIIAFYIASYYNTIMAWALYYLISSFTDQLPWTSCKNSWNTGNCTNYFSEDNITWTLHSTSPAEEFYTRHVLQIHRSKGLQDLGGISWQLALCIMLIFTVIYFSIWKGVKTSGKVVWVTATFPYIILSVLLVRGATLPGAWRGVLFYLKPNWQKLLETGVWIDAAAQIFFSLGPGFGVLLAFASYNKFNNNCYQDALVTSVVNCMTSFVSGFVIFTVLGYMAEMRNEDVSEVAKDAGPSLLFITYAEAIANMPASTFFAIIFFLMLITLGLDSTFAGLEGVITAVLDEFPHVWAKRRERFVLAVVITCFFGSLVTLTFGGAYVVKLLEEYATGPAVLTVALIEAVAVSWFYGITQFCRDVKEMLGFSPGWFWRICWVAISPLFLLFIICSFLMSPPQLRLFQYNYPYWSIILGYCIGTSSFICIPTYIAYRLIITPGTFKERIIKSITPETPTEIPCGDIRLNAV
D1, sequence (P21728 whole entry): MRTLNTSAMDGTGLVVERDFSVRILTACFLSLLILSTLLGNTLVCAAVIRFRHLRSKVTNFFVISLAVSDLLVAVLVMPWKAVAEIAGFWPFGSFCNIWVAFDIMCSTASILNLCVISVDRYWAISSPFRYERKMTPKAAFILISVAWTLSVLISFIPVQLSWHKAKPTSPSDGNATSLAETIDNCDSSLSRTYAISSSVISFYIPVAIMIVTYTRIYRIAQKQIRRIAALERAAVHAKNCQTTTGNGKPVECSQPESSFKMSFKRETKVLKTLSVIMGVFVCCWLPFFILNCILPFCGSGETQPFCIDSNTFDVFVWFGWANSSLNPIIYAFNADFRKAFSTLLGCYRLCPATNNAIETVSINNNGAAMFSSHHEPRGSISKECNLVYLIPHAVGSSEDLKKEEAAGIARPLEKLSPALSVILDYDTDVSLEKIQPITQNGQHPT
D2, sequence (P14416 1-414 isoform P14416-2): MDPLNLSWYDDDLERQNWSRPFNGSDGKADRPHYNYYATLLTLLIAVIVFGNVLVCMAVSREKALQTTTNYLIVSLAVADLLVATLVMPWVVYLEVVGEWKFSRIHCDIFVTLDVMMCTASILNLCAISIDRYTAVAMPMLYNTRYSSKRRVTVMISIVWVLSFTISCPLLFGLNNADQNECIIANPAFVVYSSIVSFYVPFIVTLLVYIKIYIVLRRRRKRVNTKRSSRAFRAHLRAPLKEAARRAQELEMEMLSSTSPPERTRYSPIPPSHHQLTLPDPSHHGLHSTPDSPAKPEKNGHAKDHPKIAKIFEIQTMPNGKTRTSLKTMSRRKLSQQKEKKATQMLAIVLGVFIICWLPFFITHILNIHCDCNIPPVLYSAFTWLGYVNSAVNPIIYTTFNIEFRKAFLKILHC
Mu opiate receptor, sequence (P35372 whole entry): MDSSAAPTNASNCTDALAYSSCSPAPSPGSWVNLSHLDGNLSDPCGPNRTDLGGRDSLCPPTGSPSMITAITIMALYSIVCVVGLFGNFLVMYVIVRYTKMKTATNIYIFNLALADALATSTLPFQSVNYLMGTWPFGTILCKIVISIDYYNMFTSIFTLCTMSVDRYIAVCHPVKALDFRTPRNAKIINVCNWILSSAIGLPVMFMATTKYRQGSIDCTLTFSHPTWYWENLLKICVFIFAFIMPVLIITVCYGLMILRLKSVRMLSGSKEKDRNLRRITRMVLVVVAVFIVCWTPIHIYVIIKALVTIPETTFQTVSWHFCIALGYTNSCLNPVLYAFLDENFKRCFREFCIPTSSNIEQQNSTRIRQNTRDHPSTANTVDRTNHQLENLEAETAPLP

SMILES	SERT activity, in words (SERT)	D2 receptor binding, in words (D2)	D1 receptor binding, in words (D1)	mu-opiate receptor binding, in words (Mu opiate receptor)	5-HT2A receptor activity, in words (5-HT2A)
O=C1CN2c3c(cccc3[C@@H]3CN(CCCOc4ccc(F)cc4)CC[C@H]32)N1 (racemic) [Example 1, trans-8-(3-(4-fluorophenoxy)propyl)-6b,7,8,9,10,10a-hexahydro-1H-pyrido[3′,4′:4,5]pyrrolo[1,2,3-de]quinoxalin-2(3H)-one]	no SERT activity	moderate D2 receptor binding	very strong		
O=C1CN2c3c(cccc3[C@H]3CN(CCCOc4ccc(F)cc4)CC[C@H]32)N1 [Compound B]	no SERT activity	weak D2 receptor affinity	moderately strong D1 receptor binding	only weak mu receptor activity	moderately strong
O=C1CN2c3c(cccc3[C@@H]3CN(CCCOc4ccc(F)cc4)CC[C@@H]32)N1 [Compound A]	very little SERT binding				
